Source: paper PMC4014121, “Structure of sulfamidase provides insight into the molecular pathology of mucopolysaccharidosis IIIA” (Acta Crystallographica Section D: Biological Crystallography, 2014)

Biological target: T1, SGSH (sulfamidase; N-sulfoglucosamine sulfohydrolase) (Homo sapiens, UniProt P51688)
T1 construct: full-length cDNA with C-terminal RSHHHHHH (residues 503-510), tag kept; secreted from HEK 293 cells, HisTrap purified; signal peptide removed (modelled from residue 21/22); glycosylated; Cys70 converted to formylglycine; homodimer, 55 kDa unglycosylated subunit
T1 sequence (P51688 21-502): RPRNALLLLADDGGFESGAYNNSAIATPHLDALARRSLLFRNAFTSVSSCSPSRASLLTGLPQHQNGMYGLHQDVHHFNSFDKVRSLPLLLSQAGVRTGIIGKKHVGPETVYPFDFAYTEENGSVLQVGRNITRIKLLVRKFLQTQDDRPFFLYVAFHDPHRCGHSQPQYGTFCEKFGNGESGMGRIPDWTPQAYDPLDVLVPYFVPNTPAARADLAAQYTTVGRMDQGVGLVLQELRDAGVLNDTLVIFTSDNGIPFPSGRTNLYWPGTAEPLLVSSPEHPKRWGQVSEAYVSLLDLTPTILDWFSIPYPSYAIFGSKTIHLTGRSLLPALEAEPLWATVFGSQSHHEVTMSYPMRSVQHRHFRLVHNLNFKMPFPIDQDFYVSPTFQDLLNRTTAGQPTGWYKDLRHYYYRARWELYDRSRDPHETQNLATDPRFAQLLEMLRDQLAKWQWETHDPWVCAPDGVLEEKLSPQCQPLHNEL
Test: two-step fluorometric assay with MU-alphaGlcNS, alpha-glucosidase coupled
Assay type: biochemical

| IC50 [µM] | Compound |
| --- | --- |
| 1000 | O=P(O)(O)O [phosphate] |
| 5000 | O=S(=O)(O)O [sulfate] |
